Results: PMC9936538, “Structure–Activity Relationship of N-Ethyl-Hexedrone Analogues: Role of the α-Carbon Side-Chain Length in the Mechanism of Action, Cytotoxicity, and Behavioral Effects in Mice” (ACS Chemical Neuroscience, 2023)
pIC50, pKi: −log10 of the molar value.

Assays:
hDAT [1] = target: T1, hDAT (Homo sapiens, UniProt Q01959); assay: Monoamine uptake inhibition, [3H]MPP+ uptake at hDAT in transfected HEK293 cells; format: cell-based; details: for hDAT/hSERT inhibition ratio: 1/DAT IC50:1/SERT IC50, calculated with the original raw data
T1 construct: expressed in transfected cells; host or cells: HEK293
Description: Human embryonic kidney cells (HEK293) stably transfected with the human DAT and SERT were used for both the uptake inhibition and transporter binding assays.[6] Cells were cultured in DMEM supplemented with heat-inactivated 10% fetal bovine serum (FBS), […], and 100 U/mL penicillin at 37 °C in a 5% CO2 humidified atmosphere. Geneticin (G418; 50 μg/mL) was added to maintain the selection process. Upon approximately 80% confluence, cells were washed with 5 mL of phosphate-buffered saline (PBS) and 1 mL of trypsin/EDTA was added. After 3 min, 9 mL of DMEM was added to stop cell trypsinization. If necessary, centrifugation was performed to pellet the cells. Cells were then resuspended, counted, and seeded onto poly-D-lysine coated (24 h/prior to the experiment) 96-well plates at a density of 0.36 million cells per well for the uptake inhibition assays.
Assays were performed as previously described.[8] On the test day, the medium was removed from the cell culture 96-well plates and immediately replaced with 200 μL of Krebs-HEPES-buffer (KHB; 10 mM HEPES, 120 mM NaCl, 3 mM KCl, 2 mM CaCl2·2H2O, 2 mM MgCl2·6H2O supplemented with 20 mM D-glucose; pH 7.3). To ensure equilibrated conditions, cells were incubated with different concentrations of the drugs in KHB at a final volume of 50 μL/well for 5 min (preincubation). The preincubation solution was removed, and cells were incubated with the tritiated compounds, 0.02 μM [^3H]MPP^+ for hDAT and 0.1 μM [^3H]5-HT for hSERT, together with various concentrations of the test drugs in KHB. The uptake incubation times were 3 min for hDAT and 1 min for hSERT. The reaction was stopped by rapid removal of the incubation solution and washout with ice-cold KHB. Cells were lysed with 1% sodium dodecyl sulfate, and lysates were subsequently transferred to vials containing scintillation fluid. Radioactivity was quantified with a beta-scintillation counter (PerkinElmer, Waltham, MA, USA). The uptake in the absence of the test drugs was normalized to 100%, and the uptake in the presence of various concentrations of cathinones was expressed as a percentage thereof. […] Four independent experiments carried out on triplicates were performed.
(§1) For in vitro assays, data were normalized with 100% defined as the mean of the technical replicates in the control group and expressed as mean ± SEM. Nonlinear regression was used to fit the different competition curves. Data were plotted and best fitted to a sigmoidal dose–response curve from which an IC50 or LC50 value was obtained. Transporter ratios were calculated as (1/DAT IC50: 1/SERT IC50). […] The Cheng–Prusoff equation was used to calculate Ki (affinity): Ki = EC50/(1 + [radioligand concentration/Kd]).[65] The sample size for behavioral experiments was determined using GPower software. One-way or two-way ANOVA, and subsequent Tukey’s posthoc test, conducted only if F was significant, was used to determine the effects of cathinones on cytotoxicity, HLA, OF, and CPP experiments. The α error probability was set at 0.05 (p < 0.05). The exact size group for the behavioral experiments is shown in the corresponding figure legends. All statistic calculations were carried out using GraphPad Prism (GraphPad software, San Diego, CA, USA).

hDAT [2] = target: T1, hDAT; assay: Transporter binding, [3H]WIN 35,428 binding at hDAT (HEK293 membranes)
Description: For membrane preparation, cells were harvested from 80 to 90% confluent dishes. HEK293 cells were washed with ice-cold phosphate-buffered saline (PBS), mechanically detached from the dish using a plastic scraper, and pelleted by centrifugation (400g for 10 min at 4 °C). The pellet was resuspended in HME buffer (20 mM HEPES NaOH, 1 mM EDTA, 2 mM MgCl2; pH 7.4), subjected to two freeze–thaw cycles in liquid nitrogen and homogenized through sonication at 4 °C. Membranes were then collected by centrifugation (40,000g for 30 min at 4 °C) and resuspended in an appropriate volume of HME buffer. The different membrane preparations aliquots were kept at −80 °C. Protein concentration was determined using the Bio-Rad Protein Reagent (Bio-Rad Laboratories, Hercules, CA).
Binding assays were performed as described.[6] […] This nonspecific binding also allows subtracting from the total binding values of the binding to other components such as membrane lipids or microfiber filters. Incubation was performed for 1 h at 22 °C. Binding reactions are stopped by rapid filtration of the membranes through GF/C glass microfiber filters presoaked with 0.5% polyethyleneimine and rapid washing with ice-cold wash buffer (120 mM NaCl, 2 mM MgCl2, 10 mM Tris, and 100 μM ZnCl2 for hDAT, and […], 2 mM MgCl2, and 10 mM Tris, for hSERT). Thereafter, the filters are placed into vials, a scintillation cocktail is added and trapped radioactivity is quantified by liquid scintillation counting. Specific binding of each drug to the transporter was defined as the difference between total binding (binding buffer in absence of the drug) and nonspecific binding. For each cathinone, four independent experiments carried out on duplicates were performed.
as §1

Swiss CD-1 mice = assay: Horizontal locomotor activity (HLA) in mice; format: in vivo; details: for HLA (total distance traveled in 60 min) vs saline / duration of the significant increase in locomotor activity: 3 mg/kg i.p.; for duration of the significant increase in locomotor activity: 5 min blocks; for shape of the dose response of HLA: 3, 10, 30 mg/kg i.p., ceiling at highest dose 30 mg/kg
Description: Male Swiss CD-1 mice (Janvier, Le Genest, France) weighing 30–35 g (6–8 weeks old), housed in temperature-controlled conditions (22 ± 1 °C) under a 12 h light/dark cycle and with free access to food and drinking water (standard laboratory diet, Panlab SL, Barcelona, Spain), were randomly assigned to an experimental group. Efforts were made to minimize animal use and suffering.
In the habituation phase, which lasted for two consecutive days, mice received an intraperitoneal (i.p.) saline injection and were immediately placed into a black Plexiglass OF arena (25 × 25 × 40 cm) under low-light conditions and white noise for 30 min. On the test day, the HLA was measured as described.[8] […] HLA was video-monitored for 1 h and a specific tracking software (Smart 3.0 Panlab, Barcelona, Spain) was used to measure their total traveled distance (in cm). The doses were chosen according to the psychostimulant effect induced by structurally related synthetic cathinones published in previous studies by our research group.[8]

T1 sequence (Q01959 whole entry): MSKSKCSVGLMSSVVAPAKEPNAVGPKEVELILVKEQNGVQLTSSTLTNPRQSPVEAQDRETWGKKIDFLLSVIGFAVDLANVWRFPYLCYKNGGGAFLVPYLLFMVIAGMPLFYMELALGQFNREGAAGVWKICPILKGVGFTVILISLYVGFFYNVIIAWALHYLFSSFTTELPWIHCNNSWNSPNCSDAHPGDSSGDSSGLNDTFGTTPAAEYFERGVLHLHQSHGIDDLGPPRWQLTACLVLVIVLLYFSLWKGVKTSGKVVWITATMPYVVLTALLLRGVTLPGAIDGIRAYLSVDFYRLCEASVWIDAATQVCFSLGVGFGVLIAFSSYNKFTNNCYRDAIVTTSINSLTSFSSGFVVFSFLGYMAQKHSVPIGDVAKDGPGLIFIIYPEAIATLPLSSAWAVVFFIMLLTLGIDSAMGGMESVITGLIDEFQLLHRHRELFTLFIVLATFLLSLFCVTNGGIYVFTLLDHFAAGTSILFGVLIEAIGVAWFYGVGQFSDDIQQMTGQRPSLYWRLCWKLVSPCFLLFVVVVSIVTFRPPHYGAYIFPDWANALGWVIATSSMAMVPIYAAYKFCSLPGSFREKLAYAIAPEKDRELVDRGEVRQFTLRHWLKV

Row | Compound | pIC50 (hDAT [1]) | hDAT/hSERT inhibition ratio (hDAT [1]) | pKi (hDAT [2]) | HLA (total distance traveled in 60 min) vs saline (Swiss CD-1 mice) | duration of the significant increase in locomotor activity (Swiss CD-1 mice) [min] | shape of the dose response of HLA (Swiss CD-1 mice) | reduction of potency inhibiting DA uptake compared with α-PVP (hDAT [1]; vs α-PVP) [fold] | potency in inhibiting DA uptake compared with NEC (hDAT [1]; vs NEC) [fold] | time at which the locomotor effect ended (Swiss CD-1 mice; 10 mg/kg i.p., 60 min session) [min]
1 | CCNC(CC)C(=O)c1ccccc1 (stereo not drawn) [NEB, N-ethyl-buphedrone] | 6.52 | 168 | 6.70 | significant effect | 15 | ceiling effect | – | – | –
2 | CCNC(C)C(=O)c1ccccc1 (stereo not drawn) [NEC, N-ethyl-cathinone] | 5.84 | 157 | 5.63 | – | – | dose–response relationship | ~10 | – | –
3 | CCCCC(NCC)C(=O)c1ccccc1 (stereo not drawn) [NEH, N-ethyl-hexedrone] | 7.14 | 1457 | 6.92 | – | – | dose–response relationship | – | ~20 | –
4 | CCCCCC(NCC)C(=O)c1ccccc1 (stereo not drawn) [NEHP, N-ethyl-heptedrone] | 6.60 | 426 | 6.97 | – | – | dose–response relationship | – | – | < 60
5 | CCCC(NCC)C(=O)c1ccccc1 (stereo not drawn) [NEPD, N-ethyl-pentedrone] | 7.04 | 844 | 7.38 | significant effect | 40 | ceiling effect | – | – | –
